Measured values: patent US12528801B2 (Givaudan SA, priority 2019, dated 2026)

Target: T1, hTRPM8 (Homo sapiens, UniProt Q7Z2W7)
T1 construct: expressed in transfected cells
Assay: Assay on TRPM8 modulators: calcium imaging (Fluo-4, Flexstation) in HEK293 cell line stably expressing hTRPM8
Format: cell-based
Settings: HEK293 cells stably expressing hTRPM8; calcium influx, Fluo-4, Flexstation 3; sigmoidal dose-response fit
Summary of the method: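 HEK293 cells stably expressing hTRPM8 were loaded with Fluo-4 AM plus probenecid and kept in HEPES buffer, pH 7.4. Calcium influx to serially diluted compounds was recorded for 120 s. Maximal activation was referenced to solvent control and 31.6 μM menthol, with EC values from sigmoidal dose-response fits.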

T1 sequence (Q7Z2W7 whole entry): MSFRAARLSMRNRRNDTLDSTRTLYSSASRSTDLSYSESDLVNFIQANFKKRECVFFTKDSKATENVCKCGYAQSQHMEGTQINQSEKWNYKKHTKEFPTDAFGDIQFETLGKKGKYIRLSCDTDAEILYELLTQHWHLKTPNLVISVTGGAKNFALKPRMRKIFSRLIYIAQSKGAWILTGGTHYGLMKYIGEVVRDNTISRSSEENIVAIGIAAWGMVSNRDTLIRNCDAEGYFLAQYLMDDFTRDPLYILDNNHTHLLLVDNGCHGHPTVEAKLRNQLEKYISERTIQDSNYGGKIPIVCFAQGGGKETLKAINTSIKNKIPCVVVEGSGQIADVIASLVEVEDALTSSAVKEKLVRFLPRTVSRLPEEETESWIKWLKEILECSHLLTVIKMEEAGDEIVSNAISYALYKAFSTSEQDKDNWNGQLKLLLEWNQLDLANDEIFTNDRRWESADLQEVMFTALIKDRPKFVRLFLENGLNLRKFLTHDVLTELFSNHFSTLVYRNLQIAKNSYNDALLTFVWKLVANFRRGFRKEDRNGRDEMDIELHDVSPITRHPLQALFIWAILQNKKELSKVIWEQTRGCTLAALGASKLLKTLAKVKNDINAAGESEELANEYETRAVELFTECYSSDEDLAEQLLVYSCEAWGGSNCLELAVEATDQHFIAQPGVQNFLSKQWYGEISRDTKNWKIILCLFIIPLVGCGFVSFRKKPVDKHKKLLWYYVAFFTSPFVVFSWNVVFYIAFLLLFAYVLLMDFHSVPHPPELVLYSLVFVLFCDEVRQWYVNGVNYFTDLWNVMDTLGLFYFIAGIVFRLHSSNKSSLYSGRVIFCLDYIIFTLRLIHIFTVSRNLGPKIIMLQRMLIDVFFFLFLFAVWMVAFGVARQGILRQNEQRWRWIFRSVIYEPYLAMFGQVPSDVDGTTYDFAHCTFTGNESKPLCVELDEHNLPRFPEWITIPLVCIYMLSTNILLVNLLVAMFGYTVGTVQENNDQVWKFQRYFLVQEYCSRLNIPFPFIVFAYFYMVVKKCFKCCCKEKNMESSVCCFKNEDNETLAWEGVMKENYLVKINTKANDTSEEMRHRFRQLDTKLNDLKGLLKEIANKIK

Row | Compound | EC50 [nM]
1 | CC[C@H](C)C(=O)N1CCCC[C@@H]1c1ncc(-c2ccc(C)cc2)[nH]1 [Compound 165, (S)-2-methyl-1-((R)-2-(5-(p-tolyl)-1H-imidazol-2-yl)piperidin-1-yl)butan-1-one] | < 50
2 | CC(=O)C(C)C(=O)N1CCCCC1c1ncc(-c2ccc(C)cc2)[nH]1 (centres unmarked) [Compound 167, 2-methyl-1-(2-(5-(p-toly)-1H-imidazol-2-yl)piperidin-1-yl)butane-1,3-dione] | 50 to 300
3 | CCCC(C)C(=O)N1CCCCC1c1ncc(-c2ccc(C)cc2)[nH]1 (centres unmarked) [Compound 168, 2-methyl-1-(2-(5-(p-tolyl)-1H-imidazol-2-yl)piperidin-1-yl)pentan-1-one] | < 50
4 | C=C(C)C(=O)N1CCCCC1c1ncc(-c2ccc(C)cc2)[nH]1 (centres unmarked) [Compound 169, 2-methyl-1-(2-(5-(p-tolyl)-1H-imidazol-2-yl)piperidin-1-yl)prop-2-en-1-one] | < 50
5 | Cc1ccc(-c2cnc(C3CCCCN3C(=O)C(C)C)[nH]2)cc1 (centres unmarked) [Compound 170, 2-methyl-1-(2-(5-(p-tolyl)-1H-imidazol-2-yl)piperidin-1-yl)propan-1-one] | < 50
6 | CSC(C)(C)C(=O)N1CCCCC1c1ncc(-c2ccc(C)cc2)[nH]1 (centres unmarked) [Compound 171, 2-methyl-2-(methylthio)-1-(2-(5-(p-tolyl)-1H-imidazol-2-yl)piperidin-1-yl)propan-1-one] | < 50
7 | CSCC(C)C(=O)N1CCCCC1c1nc(-c2ccccc2)c[nH]1 (centres unmarked) [Compound 172] | 300 to 1000
8 | C=C(CC)C(=O)N1CCCCC1c1ncc(-c2ccc(C)cc2)[nH]1 (centres unmarked) [Compound 173, 2-methylene-1-(2-(5-(p-toly)-1H-imidazol-2-yl)piperidin-1-yl)butan-1-one] | < 50
9 | CSC(C)C(=O)N1CCCCC1c1nc(-c2cccc(C#N)c2)c[nH]1 (centres unmarked) [Compound 174, 3-(2-(1-(2-(methylthio)propanoyl)piperidin-2-yl)-1H-imidazol-4-yl)benzonitrile] | 50 to 300
10 | CC(C(=O)N1CCCCC1c1nc(-c2ccccc2)c[nH]1)C(F)(F)F (centres unmarked) [Compound 175, 3,3,3-trifluoro-2-methyl-1-(2-(4-phenyl-1H-imidazol-2-yl)piperidin-1-yl)propan-1-one] | 50 to 300
11 | O=C(CC(F)(F)C(F)(F)F)N1CCCCC1c1nc(-c2ccccc2)c[nH]1 (centres unmarked) [Compound 176, 3,3,4,4,4-pentafluoro-1-(2-(4-phenyl-1H-imidazol-2-yl)piperidin-1-yl)butan-1-one] | 1000 to 35000
12 | CC(F)(F)CC(=O)N1CCCCC1c1nc(-c2ccccc2)c[nH]1 (centres unmarked) [Compound 177, 3,3-difluoro-1-(2-(4-phenyl-1H-imidazol-2-yl)piperidin-1-yl)butan-1-one] | 1000 to 35000
13 | CSC(C)C(=O)N1CCCCC1c1ncc(-c2ccc(C#N)cc2F)[nH]1 (centres unmarked) [Compound 178, 3-fluoro-4-(2-(1-(2-(methylthio)propanoyl)piperidin-2-yl)-1H-imidazol-5-yl)benzonitrile] | < 50
14 | CC(C)=CC(=O)N1CCCCC1c1nc(-c2ccccc2)c[nH]1 (centres unmarked) [Compound 179, 3-methyl-1-(2-(4-phenyl-1H-imidazol-2-yl)piperidin-1-yl)but-2-en-1-one] | 1000 to 35000
15 | CC(C)CC(=O)N1CCCCC1c1nc(-c2ccccc2)c[nH]1 (centres unmarked) [Compound 180, 3-methyl-1-(2-(4-phenyl-1H-imidazol-2-yl)piperidin-1-yl)butan-1-one] | 1000 to 35000
16 | CSC(C)C(=O)N1CCCCC1c1nc(-c2ccc(C#N)cc2)c[nH]1 (centres unmarked) [Compound 181, 4-(2-(1-(2-(methylthio)propanoyl)piperidin-2-yl)-1H-imidazol-4-yl)benzonitrile] | < 50

Row | Compound | EC50 [nM]
17 | CSC(C)C(=O)N1CCCCC1c1ncc(-c2ccc(C=O)cc2)[nH]1 (centres unmarked) [Compound 182, 4-(2-(1-(2-(methylthio)propanoyl)piperidin-2-yl)-1H-imidazol-5-yl)benzaldehyde] | < 50
18 | CC(CC(F)(F)F)C(=O)N1CCCCC1c1nc(-c2ccccc2)c[nH]1 (centres unmarked) [Compound 183, 4,4,4-trifluoro-2-methyl-1-(2-(4-phenyl-1H-imidazol-2-yl)piperidin-1-yl)butan-1-one] | 300 to 1000
19 | O=C(N1CCCCC1c1nc(-c2ccccc2)c[nH]1)C12CC(C1)C2 (centres unmarked) [Compound 184, bicyclo[1.1.1]pentan-1-yl(2-(4-phenyl-1H-imidazol-2-yl)piperidin-1-yl)methanone] | 300 to 1000
20 | O=C(C1CCC1)N1CCCCC1c1ncc(-c2cccc(F)c2)[nH]1 (centres unmarked) [Compound 185, cyclobutyl(2-(5-(3-fluorophenyl)-1H-imidazol-2-yl)piperdin-1-yl)methanone] | 300 to 1000
21 | O=C(C1CCCC1)N1CCCCC1c1nc(-c2ccccc2)c[nH]1 (centres unmarked) [Compound 186, cyclopentyl(2-(4-phenyl-1H-imidazol-2-yl)piperidin-1-yl)methanone] | 300 to 1000
22 | O=C(C1CC1)N1CCCCC1c1nc(-c2ccccc2)c[nH]1 (centres unmarked) [Compound 187, cyclopropyl(2-(4-phenyl-1H-imidazol-2-yl)piperidin-1-yl)methanone] | 1000 to 35000
23 | COC(=O)c1ccc(-c2cnc(C3CCCCN3C(=O)C(C)SC)[nH]2)cc1 (centres unmarked) [Compound 188, methyl 4-(2-(1-(2-(methylthio)propanoyl)piperidin-2-yl)-1H-imidazol-5-yl)benzoate] | 50 to 300
24 | CSC(C)C(=O)N1CCCCC1c1nc(-c2ccc(S(=O)(=O)NCCO)cc2)c[nH]1 (centres unmarked) [Compound 189, N-(2-hydroxyethyl)-4-(2-(1-(2-(methylthio)propanoyl)piperidin-2-yl)-1H-imidazol-4-yl)benzenesulfonamide] | 1000 to 35000
25 | CSC(C)C(=O)N1CCCCC1c1ncc(-c2cccc([N+](=O)[O-])c2)[nH]1 (centres unmarked) [Compound 190, 2-(methylthio)-1-(2-(5-(3-nitrophenyl)-1H-imidazol-2-yl)piperidin-1-yl)propan-1-one] | < 50
26 | CSC(C)C(=O)N1CCCCC1c1nc(-c2ccc(NS(C)(=O)=O)cc2)c[nH]1 (centres unmarked) [Compound 191, N-(4-(2-(1-(2-(methylthio)propanoyl)piperidin-2-yl)-1H-imidazol-4-yl)phenyl)methanesulfonamide] | 1000 to 35000
27 | CSC(C)C(=O)N1CCCCC1c1ncc(-c2ccc([N+](=O)[O-])cc2)[nH]1 (centres unmarked) [Compound 192, 2-(methylthio)-1-(2-(5-(4-nitrophenyl)-1H-imidazol-2-yl)piperidin-1-yl)propan-1-one] | < 50
28 | Cc1ccc(-c2cnc(C3CCCCN3C(=O)C3CC3(C)C)[nH]2)cc1 (centres unmarked) [Compound 193, (2,2-dimethylcyclopropyl)(2-(5-(p-toly)-1H-imidazol-2-yl)piperidin-1-yl)methanone] | < 50
29 | CCC(C)C(=O)N1CCCCC1c1ncc(Br)[nH]1 (centres unmarked) [Compound 194, 1-(2-(5-bromo-1H-imidazol-2-yl)piperidin-1-yl)-2-methylbutan-1-one] | 1000 to 35000
30 | CCC(C)C(=O)N1CCCCC1c1ncc(-c2ccc(Cl)cc2)[nH]1 (centres unmarked) [Compound 195, 1-(2-(5-(4-chlorophenyl)-1H-imidazol-2-yl)piperidin-1-yl)-2-methylbutan-1-one] | < 50
31 | CSC(C)C(=O)N1CCCCC1c1ncc(-c2ccc(CC#N)cc2)[nH]1 (centres unmarked) [Compound 196, 2-(4-(2-(1-(2-(methylthio)propanoyl)piperidin-2-yl)-1H-imidazol-5-yl)phenyl)acetonitrile] | < 50
32 | CCC(C)C(=O)N1CCCCC1c1ncc(-c2ccc(CC#N)cc2)[nH]1 (centres unmarked) [Compound 197, 2-(4-(2-(1-(2-methylbutanoyl)piperidin-2-yl)-1H-imidazol-5-yl)phenyl)acetonitrile] | < 50
